For two molecules, Kd and stoichiometry n results are on record in PMC10123104 (Nucleic Acids Research, 2023).

In this test the target is YbiB (Escherichia coli, UniProt P30177). Description: biochemical. Type of test: binding.

No end group written: not given here.

One may read the Kd as a measure of binding affinity in units of concentration.

Sequence of YbiB (P30177 whole entry): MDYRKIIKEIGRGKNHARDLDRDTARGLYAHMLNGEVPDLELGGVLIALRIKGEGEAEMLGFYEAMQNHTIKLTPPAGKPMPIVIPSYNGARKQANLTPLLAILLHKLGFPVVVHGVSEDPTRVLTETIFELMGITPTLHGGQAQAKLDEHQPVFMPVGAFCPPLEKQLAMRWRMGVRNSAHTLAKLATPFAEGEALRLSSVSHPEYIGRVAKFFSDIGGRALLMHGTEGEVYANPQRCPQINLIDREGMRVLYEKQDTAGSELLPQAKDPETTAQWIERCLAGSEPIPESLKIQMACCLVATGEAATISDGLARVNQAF

Regarding LEEIAEEDDEDADDDADEDD [peptide4-AA], the Kd was about 10 µM.
`CC[C@H](C)[C@H](NC(=O)[C@H](Cc1ccccc1)NC(=O)[C@H](CCC(=O)O)NC(=O)[C@@H](NC(=O)CNC(=O)[C@H](CCC(=O)O)NC(=O)[C@H](CCC(=O)O)NC(=O)[C@H](CC(=O)O)NC(=O)[C@H](CC(=O)O)NC(=O)[C@H](CCC(=O)O)NC(=O)[C@H](CC(=O)O)NC(=O)[C@H](Cc1c[nH]c2ccccc12)NC(=O)[C@H](CC(=O)O)NC(=O)[C@H](CC(=O)O)NC(=O)[C@H](CC(=O)O)NC(=O)[C@H](Cc1c[nH]c2ccccc12)NC(=O)[C@@H](N)CC(=O)O)C(C)C)C(=O)N[C@@H](Cc1ccc(O)cc1)C(=O)N[C@@H](CCCCN)C(=O)N[C@@H](CCCNC(=N)N)C(=O)O` [peptide5]: under “ITC, Figure 3C isotherm, single binding event”, the stoichiometry n amounted to 0.937 ± 0.008.
